Reference: ChEMBL document CHEMBL1201862, “PubChem BioAssay data set” (2004)
Active and inactive are the calls of the source.

Experiments:
Troponin, cardiac muscle = Troponin, cardiac muscle (Homo sapiens, UniProt P19429+P45379+P63316); test: Fluorescence-based biochemical high throughput dose response assay for activators of the calcium sensitivity of cardiac Regulated Thin Filaments (RTF). [Related pubchem assays (depositor defined):AID493008, AID493018, AID504382, AID504383]; format: protein-complex assay
Cytochrome P450 2D6 = Cytochrome P450 2D6 (Homo sapiens, UniProt P10635);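 also: CYP2D6 member of a cytochrome P450 panel assay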
Cytochrome P450 2C9 = Cytochrome P450 2C9 (Homo sapiens, UniProt P11712)
[1] = target: DNA dC->dU-editing enzyme APOBEC-3G (Homo sapiens, UniProt Q9HC16); test: Dose Response confirmation of small molecule APOBEC3G DNA Deaminase Inhibitors via a fluorescence-based single-stranded DNA deaminase assay. [Related pubchem assays (depositor defined):AID493012, AID493028]; format: functional
Large T antigen = Large T antigen (Simian virus 40, UniProt P03070); format: functional, Betapolyomavirus macacae;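 also: Confirmatory-stage PubChem screen for compounds that inhibit SV40 T antigen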
Cytochrome P450 1A2 = target: T1, Cytochrome P450 1A2 (Homo sapiens, UniProt P05177);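 also: PubChem cytochrome P450 panel assay, CYP1A2 panel member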
T1 sequence (P05177 whole entry): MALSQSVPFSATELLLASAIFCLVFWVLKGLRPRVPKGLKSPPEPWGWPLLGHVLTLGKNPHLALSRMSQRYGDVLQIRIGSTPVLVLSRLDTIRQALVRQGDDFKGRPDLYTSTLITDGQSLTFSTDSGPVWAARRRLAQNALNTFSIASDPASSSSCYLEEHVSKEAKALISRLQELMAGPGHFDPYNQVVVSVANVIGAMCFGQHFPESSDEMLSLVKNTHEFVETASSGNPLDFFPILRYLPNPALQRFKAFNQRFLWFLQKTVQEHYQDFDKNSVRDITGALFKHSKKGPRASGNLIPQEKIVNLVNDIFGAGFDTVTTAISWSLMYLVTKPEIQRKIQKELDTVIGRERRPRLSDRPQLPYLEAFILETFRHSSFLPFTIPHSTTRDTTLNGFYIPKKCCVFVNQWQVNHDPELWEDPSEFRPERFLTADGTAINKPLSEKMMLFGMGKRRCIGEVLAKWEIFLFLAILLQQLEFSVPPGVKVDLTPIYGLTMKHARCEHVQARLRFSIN

Vero [2] = test: cells; format: functional; conditions: Chlorocebus sabaeus
Vero [3] = test: cells; format: functional, cell-based; conditions: Chlorocebus sabaeus
[4] = target: Eukaryotic translation initiation factor 4E (Mus musculus, UniProt P63073); test: eIF4E–eIF4G protein interaction inhibitors, dose response, biochemical, TR-FRET (AID 855); format: functional;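 also: potency for disrupting eIF4E binding to eIF4GI seen as loss of FRET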
Aminopeptidase N = target: T2, Aminopeptidase N (Plasmodium falciparum FcB1/Columbia, UniProt O96935); test: P. falciparum M1AAP inhibitors, biochemical, fluorogenic H-Leu-NHMec substrate, 1536-well (AID 1445); set-up: species or system Plasmodium falciparum 3D7, 3D7
T2 sequence (O96935 whole entry): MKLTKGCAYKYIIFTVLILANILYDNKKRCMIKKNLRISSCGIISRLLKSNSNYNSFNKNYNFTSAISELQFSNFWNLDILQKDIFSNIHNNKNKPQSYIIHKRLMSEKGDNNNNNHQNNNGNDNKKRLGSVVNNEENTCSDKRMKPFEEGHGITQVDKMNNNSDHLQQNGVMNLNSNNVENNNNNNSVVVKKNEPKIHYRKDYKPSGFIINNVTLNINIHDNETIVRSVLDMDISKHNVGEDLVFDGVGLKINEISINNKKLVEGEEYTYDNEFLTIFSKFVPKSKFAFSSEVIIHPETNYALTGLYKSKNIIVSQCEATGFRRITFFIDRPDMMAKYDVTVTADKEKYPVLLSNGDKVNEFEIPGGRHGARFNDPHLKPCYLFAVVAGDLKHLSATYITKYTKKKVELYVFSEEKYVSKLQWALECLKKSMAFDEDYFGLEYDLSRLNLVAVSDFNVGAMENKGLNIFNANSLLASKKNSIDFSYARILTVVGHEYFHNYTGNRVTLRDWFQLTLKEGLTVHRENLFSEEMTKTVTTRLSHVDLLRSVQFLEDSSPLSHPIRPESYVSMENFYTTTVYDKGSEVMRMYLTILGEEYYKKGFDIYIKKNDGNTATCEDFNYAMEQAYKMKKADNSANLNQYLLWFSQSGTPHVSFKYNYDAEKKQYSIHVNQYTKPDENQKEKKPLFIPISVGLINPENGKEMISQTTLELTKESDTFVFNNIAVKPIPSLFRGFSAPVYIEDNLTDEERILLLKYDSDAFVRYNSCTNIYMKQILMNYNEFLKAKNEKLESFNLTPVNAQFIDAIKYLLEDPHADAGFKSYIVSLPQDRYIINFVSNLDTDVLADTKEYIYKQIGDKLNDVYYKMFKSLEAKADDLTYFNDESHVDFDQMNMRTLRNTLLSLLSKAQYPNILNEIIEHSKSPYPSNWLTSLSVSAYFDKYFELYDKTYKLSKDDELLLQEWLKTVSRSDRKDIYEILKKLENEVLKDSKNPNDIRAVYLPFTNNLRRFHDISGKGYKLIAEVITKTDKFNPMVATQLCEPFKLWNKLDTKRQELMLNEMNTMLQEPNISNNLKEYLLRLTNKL

Leucine aminopeptidase = target: T3, Leucine aminopeptidase (Plasmodium falciparum 3D7, UniProt Q8IL11); test: P. falciparum M17LAP inhibitors, primary screen, biochemical, fluorogenic H-Leu-NHMec substrate, 1536-well (AID 1619); format: functional
T3 sequence (Q8IL11 whole entry): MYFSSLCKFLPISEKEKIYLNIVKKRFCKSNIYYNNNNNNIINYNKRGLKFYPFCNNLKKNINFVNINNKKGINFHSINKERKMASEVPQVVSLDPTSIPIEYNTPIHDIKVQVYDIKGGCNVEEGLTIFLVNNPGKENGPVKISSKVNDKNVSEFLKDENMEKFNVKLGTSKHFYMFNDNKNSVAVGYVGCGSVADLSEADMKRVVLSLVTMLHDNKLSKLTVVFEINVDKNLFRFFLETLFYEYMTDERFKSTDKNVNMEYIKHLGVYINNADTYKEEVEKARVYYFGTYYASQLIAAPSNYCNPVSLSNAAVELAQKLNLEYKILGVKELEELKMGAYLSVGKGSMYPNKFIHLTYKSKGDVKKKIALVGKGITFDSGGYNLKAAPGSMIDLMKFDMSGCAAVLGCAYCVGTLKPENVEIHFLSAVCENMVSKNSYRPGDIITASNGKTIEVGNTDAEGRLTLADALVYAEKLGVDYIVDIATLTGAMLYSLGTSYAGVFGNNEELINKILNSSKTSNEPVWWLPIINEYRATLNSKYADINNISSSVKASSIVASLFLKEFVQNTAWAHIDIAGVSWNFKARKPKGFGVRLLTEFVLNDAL

Protein skinhead-1 = target: T4, Protein skinhead-1 (Caenorhabditis elegans, UniProt P34707); format: functional
T4 sequence (P34707 whole entry): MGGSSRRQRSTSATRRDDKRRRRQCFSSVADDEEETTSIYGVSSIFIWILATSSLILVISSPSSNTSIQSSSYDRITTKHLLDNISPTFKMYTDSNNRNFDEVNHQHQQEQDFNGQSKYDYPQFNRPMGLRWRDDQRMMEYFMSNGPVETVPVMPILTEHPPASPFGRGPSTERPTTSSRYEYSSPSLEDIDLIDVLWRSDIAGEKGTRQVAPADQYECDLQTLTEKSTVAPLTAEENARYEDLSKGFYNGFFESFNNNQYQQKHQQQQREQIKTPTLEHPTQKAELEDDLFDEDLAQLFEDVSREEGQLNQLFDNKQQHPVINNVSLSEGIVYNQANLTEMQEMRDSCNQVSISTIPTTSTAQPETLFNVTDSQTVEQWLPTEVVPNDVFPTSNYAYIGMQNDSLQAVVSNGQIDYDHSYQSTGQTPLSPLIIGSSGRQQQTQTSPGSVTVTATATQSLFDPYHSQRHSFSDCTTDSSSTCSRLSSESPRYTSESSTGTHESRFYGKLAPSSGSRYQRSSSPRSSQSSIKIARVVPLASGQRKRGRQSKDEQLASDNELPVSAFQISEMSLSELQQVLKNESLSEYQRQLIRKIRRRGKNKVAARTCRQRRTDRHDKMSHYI

[5] = target: T5, Microphthalmia-associated transcription factor (Homo sapiens, UniProt O75030); test: TRPM1 promoter luciferase signal decrease, dose response, MITF inhibitor project, cell-based, SK-MEL-5, cherry-picked, set 3 (AID 493073); format: functional
T5 sequence (O75030 whole entry): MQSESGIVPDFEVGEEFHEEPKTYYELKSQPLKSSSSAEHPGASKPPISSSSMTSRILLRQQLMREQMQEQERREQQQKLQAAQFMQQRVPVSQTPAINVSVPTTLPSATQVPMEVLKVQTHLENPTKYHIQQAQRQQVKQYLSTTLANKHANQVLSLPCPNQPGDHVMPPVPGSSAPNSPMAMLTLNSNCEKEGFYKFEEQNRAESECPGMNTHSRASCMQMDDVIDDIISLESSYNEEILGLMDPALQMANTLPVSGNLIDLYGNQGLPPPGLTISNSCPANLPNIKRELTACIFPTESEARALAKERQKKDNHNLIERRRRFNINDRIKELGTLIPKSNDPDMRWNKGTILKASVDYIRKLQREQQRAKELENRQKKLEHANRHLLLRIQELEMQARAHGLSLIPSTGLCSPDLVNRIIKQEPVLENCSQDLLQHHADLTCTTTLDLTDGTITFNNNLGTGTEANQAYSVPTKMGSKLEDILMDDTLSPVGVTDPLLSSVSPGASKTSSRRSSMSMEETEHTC

[6] = C. albicans growth with fluconazole, confirmation, fluorescence, retest (AID 2467); format: functional, cell-based
[7] = target: Heat shock protein HSP 90-alpha (Homo sapiens, UniProt P07900); format: functional, organism-based
[8] = NIH-3T3 fibroblast cytotoxicity, dose response, cytotoxicity control, cell-based, fluorescence, Alamar Blue, secondary assay (AID 2327); format: functional;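 also: NIH-3T3 mouse fibroblasts cultured with fluconazole at 8 µg/mL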
INS1 = test: beta cell apoptosis inhibitors, cytokine rescue, dose response, luminescence, retest (AID 449756); format: functional, cell-based; conditions: Rattus norvegicus;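 also: cell death triggered by IL-1 beta plus TNF-alpha plus IFN-gamma mixture; protective hits raise ATP signal compared with cytokine alone wells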
[9] = target: T6, DNA repair protein RAD52 homolog (Homo sapiens, UniProt P43351); format: functional, biochemical
T6 sequence (P43351 whole entry): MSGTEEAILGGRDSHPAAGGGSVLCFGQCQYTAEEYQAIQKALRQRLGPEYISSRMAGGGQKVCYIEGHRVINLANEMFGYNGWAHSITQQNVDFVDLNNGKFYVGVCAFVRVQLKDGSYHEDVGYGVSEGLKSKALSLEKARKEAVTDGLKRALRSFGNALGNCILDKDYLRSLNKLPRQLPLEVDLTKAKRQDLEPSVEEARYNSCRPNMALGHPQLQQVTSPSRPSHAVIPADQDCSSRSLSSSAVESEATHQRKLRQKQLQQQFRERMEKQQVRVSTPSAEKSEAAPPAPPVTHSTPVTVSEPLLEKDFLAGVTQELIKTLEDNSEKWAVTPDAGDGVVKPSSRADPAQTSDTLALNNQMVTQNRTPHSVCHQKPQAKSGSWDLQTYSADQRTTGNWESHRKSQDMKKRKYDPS

Sequence of DNA dC->dU-editing enzyme APOBEC-3G (Q9HC16 whole entry): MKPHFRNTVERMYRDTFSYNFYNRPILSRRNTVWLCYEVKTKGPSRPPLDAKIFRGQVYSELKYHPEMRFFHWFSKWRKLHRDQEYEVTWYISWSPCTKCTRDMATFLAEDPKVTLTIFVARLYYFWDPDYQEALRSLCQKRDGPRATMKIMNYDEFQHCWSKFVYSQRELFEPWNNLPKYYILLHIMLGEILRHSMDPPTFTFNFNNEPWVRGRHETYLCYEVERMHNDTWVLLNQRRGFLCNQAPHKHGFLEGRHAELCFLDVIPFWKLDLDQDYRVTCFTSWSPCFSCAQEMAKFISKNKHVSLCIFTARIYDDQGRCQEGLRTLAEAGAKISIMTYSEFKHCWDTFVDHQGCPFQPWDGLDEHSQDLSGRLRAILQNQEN
Sequence of Eukaryotic translation initiation factor 4E (P63073 whole entry): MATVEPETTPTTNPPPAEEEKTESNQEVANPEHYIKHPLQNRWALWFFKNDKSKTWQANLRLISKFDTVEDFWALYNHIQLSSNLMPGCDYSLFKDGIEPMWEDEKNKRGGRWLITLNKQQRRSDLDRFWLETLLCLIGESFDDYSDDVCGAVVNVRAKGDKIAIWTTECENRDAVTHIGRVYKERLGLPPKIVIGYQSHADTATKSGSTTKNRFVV
Sequence of Cytochrome P450 2C9 (P11712 whole entry): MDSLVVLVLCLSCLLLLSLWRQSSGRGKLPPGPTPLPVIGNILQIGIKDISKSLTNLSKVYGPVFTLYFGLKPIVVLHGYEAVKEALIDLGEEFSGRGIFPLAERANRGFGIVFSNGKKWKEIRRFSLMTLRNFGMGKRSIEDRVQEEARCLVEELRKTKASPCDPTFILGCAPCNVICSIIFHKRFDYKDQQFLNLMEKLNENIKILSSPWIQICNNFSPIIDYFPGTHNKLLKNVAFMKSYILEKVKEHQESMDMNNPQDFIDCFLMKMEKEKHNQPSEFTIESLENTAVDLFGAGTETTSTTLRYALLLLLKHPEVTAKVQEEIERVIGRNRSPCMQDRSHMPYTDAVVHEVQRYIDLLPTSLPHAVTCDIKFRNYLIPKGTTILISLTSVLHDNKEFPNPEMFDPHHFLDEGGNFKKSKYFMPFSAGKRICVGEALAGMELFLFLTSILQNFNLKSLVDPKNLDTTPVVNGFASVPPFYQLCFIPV
Sequence of Cytochrome P450 2D6 (P10635 whole entry): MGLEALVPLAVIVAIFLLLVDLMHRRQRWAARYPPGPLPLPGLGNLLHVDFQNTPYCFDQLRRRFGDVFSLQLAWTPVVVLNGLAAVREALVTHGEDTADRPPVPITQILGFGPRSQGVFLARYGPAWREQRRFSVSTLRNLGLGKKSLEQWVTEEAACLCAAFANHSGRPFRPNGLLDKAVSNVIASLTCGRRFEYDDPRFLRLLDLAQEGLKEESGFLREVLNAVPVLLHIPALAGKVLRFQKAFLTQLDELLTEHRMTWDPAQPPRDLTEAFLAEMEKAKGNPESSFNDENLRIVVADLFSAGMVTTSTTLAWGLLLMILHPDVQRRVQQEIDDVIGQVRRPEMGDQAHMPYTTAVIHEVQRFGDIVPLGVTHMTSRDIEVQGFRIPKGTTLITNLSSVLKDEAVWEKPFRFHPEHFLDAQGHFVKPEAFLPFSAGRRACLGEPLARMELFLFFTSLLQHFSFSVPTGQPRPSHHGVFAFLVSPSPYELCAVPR
Sequence of Large T antigen (P03070 whole entry): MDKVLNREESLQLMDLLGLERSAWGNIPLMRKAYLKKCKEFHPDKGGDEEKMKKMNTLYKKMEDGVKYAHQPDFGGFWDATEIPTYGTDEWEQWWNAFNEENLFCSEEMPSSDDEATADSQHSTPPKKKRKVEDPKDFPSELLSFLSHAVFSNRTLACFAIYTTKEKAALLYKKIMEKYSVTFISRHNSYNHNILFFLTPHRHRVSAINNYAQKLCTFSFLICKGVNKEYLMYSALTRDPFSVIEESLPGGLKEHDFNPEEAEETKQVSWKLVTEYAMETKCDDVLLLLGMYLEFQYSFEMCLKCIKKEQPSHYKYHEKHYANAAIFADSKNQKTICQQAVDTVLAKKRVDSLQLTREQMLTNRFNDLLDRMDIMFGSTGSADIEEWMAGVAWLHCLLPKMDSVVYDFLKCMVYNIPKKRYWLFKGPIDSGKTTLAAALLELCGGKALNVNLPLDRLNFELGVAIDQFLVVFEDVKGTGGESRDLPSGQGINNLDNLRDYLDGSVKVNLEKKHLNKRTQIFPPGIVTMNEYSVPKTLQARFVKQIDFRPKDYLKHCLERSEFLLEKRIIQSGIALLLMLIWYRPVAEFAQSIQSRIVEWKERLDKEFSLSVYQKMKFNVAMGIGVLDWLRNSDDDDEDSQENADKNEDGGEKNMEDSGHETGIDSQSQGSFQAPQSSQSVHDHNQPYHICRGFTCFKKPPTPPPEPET

COc1ccccc1/C=C/C=C1\Oc2c(ccc(O)c2CN2CCN(CCO)CC2)C1=O
EC50 (Troponin, cardiac muscle): 1.37 µM (active)

CN(C)c1ccc(-c2cc(Nc3ccc(F)cc3)ncn2)cc1
AC50 (Cytochrome P450 2D6): 39.8 µM (inconclusive) | AC50 (Cytochrome P450 2C9): inconclusive

Cc1ccc(C2(C)NC(=O)N(CC(=O)Nc3nc(-c4ccccn4)cs3)C2=O)cc1 (stereo not drawn)
IC50 [1]: 25.6 µM (active) | IC50 (Large T antigen): > 100 µM (active)

S=C(Nc1cc(Cl)ccc1Oc1ccccc1)N1CCN(c2ccccn2)CC1
EC50 (Troponin, cardiac muscle): > 71.4 µM (inactive)

Sc1nnc(-c2ccccn2)n1/N=C/c1ccccc1
IC50 [1]: 9.26 µM (active)

COc1cccc(Cn2c(=O)c(-c3cccs3)nc3cnc(N4CCN(C)CC4)nc32)c1
AC50 (Cytochrome P450 2C9): inconclusive | AC50 (Cytochrome P450 1A2): 5.01 µM (inconclusive)

COC(COC(N)=O)C1=C(N2CC2)C(=O)C(C)=C(N2CC2)C1=O (stereo not drawn) [CARBOQUONE]
CC50 (Vero [2]): 0.3 µM (active) | IC50 (Vero [3]): > 25 µM (active)

O=C(Nc1cccc2ccccc12)c1ccc(Br)o1
IC50 [4]: > 64 µM (inactive)

Cc1cc(OCc2nnn[nH]2)c2c3c(c(=O)oc2c1)CCCC3
IC50 (Aminopeptidase N): 68.9 µM (active)

Cc1ccc(C(=O)Nc2nc(=O)n(C(=O)c3ccccc3Cl)s2)cc1
IC50 (Leucine aminopeptidase): 13.8 µM (active) | IC50 (Aminopeptidase N): 38.8 µM (active)

CCOC(=O)c1ccc2c(c1)nc(SCC(=O)c1cc3ccccc3o1)n2CC
IC50 (Protein skinhead-1): > 100 µM (inactive) | IC50 [4]: > 64 µM (inactive)

Cc1ccc(S(=O)(=O)CC(O)CN2CCCC2=O)cc1 (stereo not drawn)
AC50 (Cytochrome P450 2C9): inconclusive

O=C1NN=C(CSc2nnc(S)s2)CS1
IC50 [1]: 9.78 µM (active)

COc1ccccc1NC(=O)c1ccc(NC(=O)c2cc3c(s2)CCC3)cc1
IC50 [4]: > 64 µM (inactive)

C/C(NCC1CCCO1)=C1/C(=O)NC(=O)N(c2ccccc2)C1=O (stereo not drawn)
IC50 [4]: > 64 µM (inactive)

COc1ccc(OC)c(N2C(=O)/C(=C/NCCN3CCNCC3)C(=O)NC2=S)c1
EC50 (Troponin, cardiac muscle): > 71.5 µM (inactive)

CC(NC(=O)C12CC3CC(CC(C3)C1)C2)C(=O)NN=Cc1ccc([N+](=O)[O-])o1 (stereo not drawn)
AC50 [5]: 7.79 µM (active)

C=CCn1c(=N)c(C(=O)NCCCOC)cc2c(=O)n3cccc(C)c3nc21
IC50 (Aminopeptidase N): 47.6 µM (active)

CN=C(S)N=Nc1c(O)[nH]c2ccccc12
IC50 (Aminopeptidase N): 47.9 µM (active)

CCCCOc1ccc(C(=O)NNC(=S)NC(=O)CC)cc1
EC50 [6]: 0.621 µM (active) | AC50 [7]: 4.33 µM (active) | EC50 [8]: > 160 µM (inactive) | AC50 (INS1): 3.17 µM (active) | CC50 (Vero [2]): 13.2 µM (active) | IC50 (Vero [3]): 5.78 µM (active)

CCc1nc(N=C(N)N)nc2ccccc12
AC50 [9]: 20.2 µM (active) | IC50 (Aminopeptidase N): 48.5 µM (active)
